How the values were obtained:
[1] = test system: type D HBV surface antigen (HBsAg) reporter cell line; assay: sgRNA lentiviral library screening, HBsAg reporter cell line (NGS reads in GFP-negative cells); assay type: cell-based; conditions: sgRNA in GFP-negative cell population, day 14 after transfection of EPIREG
Source text: (§1) In this example, the type D HBV X protein (HBx), core antigen (HBcAg), and surface antigen (HBsAg) reporter cell lines were used for library screening. First, a sgRNA cell library of type D HBV gene was constructed using a reporter cell line according to the method described in example 1. The sgRNA library was packaged into lentivirus to obtain a sgRNA lentiviral library (carrying red fluorescence), the reporter cell line was infected with the lentiviral library, and the red fluorescence was sorted to obtain the sgRNA cell library. Each cell in this sorted cell library integrated a single sgRNA in the library while the cell itself carried a reporter sequence (carrying green fluorescence). The EPIREG tool described in example 2 (the amino acid sequence of the tool was SEQ ID NO: 1194) (carrying blue fluorescence) was transfected and delivered into a cell library carrying both sgRNA and reporter sequences. Red/green/blue fluorescent triple-positive cells were sorted using a flow cytometer and cultured long-term. The EPIREG transfected into the cells could work together with the sgRNA to silence GFP in the reporter. On the day 14 after transfection, the GFP-negative cell population in the cell library was sorted, the genomic DNA of the negative cell population was extracted for NGS sequencing. The sgRNAs with higher sequencing reads in the negative cell population were compared using the untreated cell library as a control reference, so as to obtain the candidate sgRNAs that could play an editing role corresponding to each reporter, respectively (the schematic diagram of this screening scheme is shown in FIG. 6, and the analysis method is referenced to the literature DOI: 10.1186/s13059-014-0554-4). The functionally validated sgRNAs for each reporter cell line are summarized in the following table (arranged by the starting position of the target sequence of each sgRNA).

[2] = test system: type D HBV X protein (HBx) reporter cell line; assay: sgRNA lentiviral library screening, HBx reporter cell line (NGS reads in GFP-negative cells); assay type: cell-based; conditions: sgRNA in GFP-negative cell population, day 14 after transfection of EPIREG
Source text: as §1

[3] = test system: type D HBV core antigen (HBcAg) reporter cell line; assay: sgRNA lentiviral library screening, HBcAg reporter cell line (NGS reads in GFP-negative cells); assay type: cell-based; conditions: sgRNA in GFP-negative cell population, day 14 after transfection of EPIREG
Source text: as §1

[4] = test system: type D hepatitis B virus (GenBank: U95551); assay: Knockdown of HBV markers in HBV-infected primary hepatocytes (PHH), Example 2; assay type: cell-based; conditions: for level of viral antigen protein (HBsAg, HBeAg/HBcAg) after end of treatment: sgRNA: single 4 h treatment, RG7834 stopped on day 13
Source text: A primary hepatocyte (PHH) cell line infected with type D hepatitis B virus (GenBank: U95551) was used in this example. […] Therefore, these four sgRNAs were used to formulate the pharmaceutical composition provided in the present application and perform epigenetic editing in primary hepatocytes to validate their inhibitory effect on HBV gene expression.
Two days after primary hepatocytes were infected with HBV, lipid nanoparticles (LNPs) (LNP preparation reference: https://doi.org/10.1038/s41586-021-03534-y) were used to deliver a composition containing mRNA encoding EPIREG (SEQ ID NO: 1191) and each sgRNA (BSG29, BSG31, BSG34, BSG35) into primary hepatocytes (administration dose was 2.5 μg/ml, the mass ratio of EPIREG to sgRNA was 1:1). The culture supernatant was collected every two days after administration to detect the expression levels of HBV surface antigen (HBsAg) and core antigen (HBcAg) secreted by the cells. Cell samples were collected until 14 days after administration, DNA and RNA were extracted from the cells, and the levels of HBV mRNA and changes in the cccDNA of the HBV gene were detected. The two groups of positive controls used Myrcludex B (WuXi AppTec, C9023GE070-1/PE0723) and RG7834 (WuXi AppTec, ET25747-14-P1), respectively. Myrcludex B could inhibit HBV infection of hepatocytes, and RG7834 could inhibit the synthesis of viral proteins. RG7834 was stopped on the day 13 of the experiment to observe the rebound of viral antigen proteins. (Specific detection methods were performed according to the following kit instructions: HBsAg ELISA kit, Antu-CL 0310; HBeAg ELISA kit, Antu-CL 0312; RNeasy 96 Kit (12), QIAGEN #74182)

[5] = test system: type D hepatitis B virus (GenBank: U95551); assay: Candidate sgRNA effect validation in HBV-infected primary hepatocytes (PHH), Example 4; assay type: cell-based; conditions: 14 days after infection
Source text: A primary hepatocyte (PHH) cell line (WuXi AppTec, M00995-P) infected with type D hepatitis B virus (GenBank: U95551) was used in this validation experiment. Based on the screening results of the three libraries in Example 3 and combined with factors such as conservation, the 20 sgRNAs shown in the table below were selected to prepare the pharmaceutical composition provided in the present application and perform epigenetic editing in the primary hepatocytes to validate the inhibitory effect of the screened candidate sgRNAs on HBV gene expression.
Two days after primary hepatocytes were infected with HBV, lipid nanoparticles (LNPs) (LNP preparation reference: https://doi.org/10.1038/s41586-021-03534-y) were used to deliver the composition comprising the mRNA encoding EPIREG (sequence: SEQ ID NO: 1191) and each of the above-mentioned sgRNAs into primary hepatocytes (administration dose was 2.5 μg/ml, the mass ratio of EPIREG to sgRNA was 1:1). […] The supernatant of the culture medium was collected every two days after administration in each group, and the expression levels of HBV surface antigen (HBsAg), core antigen (HBcAg/HBeAg) and HBV DNA secreted by the cells were detected until 14 days after infection. Cell samples were collected, DNA and RNA in the cells were extracted, and the level of HBV mRNA was detected. […]

[6] = test system: HBx reporter cell line of type B HBV; assay: sgRNA functional screening in HBx reporter cell line (293 FT, P2A-EGFP), type B HBV; assay type: cell-based, type B HBV (serotype adw); conditions: for editing effects in the HBx reporter cell line: type B HBV, different time points after transfection of EPIREG + sgRNA
Source text: (§2) 293 FT was used to construct a reporter cell line for type B, type C and type D HBV surface antigen (HBsAg), core antigen (HBcAg), X protein (HBx) and polymerase (Pol), and the schematic diagram is shown in FIG. 1A. The genomic sequence containing the CpG island and regulatory elements before the protein transcription start site was retained, and the gene sequences of the self-cleaving peptide P2A and EGFP were fused after the 38th amino acid of the HBV surface antigen (HBsAg), the 129th amino acid of the core antigen (HBcAg), the 77th amino acid of the X protein (HBx), and the 177th amino acid of the polymerase (Pol), respectively. The reporter gene was integrated into the 293 FT genome using the PiggyBac transposon system, and a stably transfected cell line was constructed. The intensity of fluorescence was used to reflect the expression level of the protein, thereby quickly performing functional validation and preliminary screening of sgRNAs near the CpG island.
The screening scheme for sgRNA functional validation using the above-mentioned reporter cell line was designed as follows (FIG. 1B): after the reporter cells were plated, the composition EPIREG described in the present application (the domain of the composition was DNMT3A-hDNMT3L-xten80-ZIM3-xten80-dCas9, with an amino acid sequence as set forth in SEQ ID NO: 1194, and a nucleic acid sequence as set forth in SEQ ID NO: 1192 (CDS sequence) and 1193 (plasmid sequence)) containing different sgRNAs was delivered into the cells by transfection, and the two carried red fluorescence and blue fluorescence, respectively. Flow cytometry was used to sort red fluorescent and blue fluorescent double-positive cell populations, which were cultured for a long time. Flow cytometric analysis was performed every week to detect changes in the fluorescence intensity of the reporter cells, which could reflect changes in protein expression levels after epigenetic editing.

[7] = test system: HBx reporter cell line of type D HBV; assay: sgRNA functional screening in HBx reporter cell line (293 FT, P2A-EGFP), type D HBV; assay type: cell-based, type D HBV (serotype ayw)
Source text: as §2, with “island. […]” for “island.”

[8] = test system: HBx reporter cell line of type C HBV; assay: sgRNA functional screening in HBx reporter cell line (293 FT, P2A-EGFP), type C HBV; assay type: cell-based, type C HBV (serotype adr)
Source text: as §2, with “island. […]” for “island.”

[9] = test system: HBV genome (type A, GenBank: AF305422.1); assay: Knockdown of HBV markers in transgenic HBV mice; assay type: in vivo, mice (C57BL/6-HBV); conditions: after single administration
Source text: Transgenic HBV mice (Beijing Vitalstar Biotechnology Co., Ltd., C57BL/6-HBV, subsequent feeding and testing were completed by Beijing Vitalstar) were used in this validation experiment. The genome of this strain of mice was inserted with a 1.28-fold length HBV genome (type A, GenBank: AF305422.1). […] Therefore, this sgRNA was used to prepare the pharmaceutical composition provided in the present application and perform epigenetic editing in transgenic HBV mice to validate the inhibitory effect of this drug on the expression of integrated HBV genes in an in vivo model.
The composition comprising the mRNA encoding EPIREG (sequence: SEQ ID NO: 1191) and sgRNA numbered D99 (BSG35) (mass ratio of mRNA to sgRNA of 1:1) was delivered to transgenic HBV mice (at a dose of 10 mg/kg) by means of tail vein injection of lipid nanoparticles (LNPs) (LNP preparation reference: https://doi.org/10.1038/s41586-021-03534-y). PBS (200 ul) was injected as a negative control, and the antisense oligonucleotide (ASO) drug Bepirovirsen (GSK3228836, dose of 200 mg/kg) was used as a positive control, which could target all HBV RNAs and thus reduce the expression of HBV antigens. After administration, blood was collected regularly in each group to detect the levels of HBV surface antigen (HBsAg) and core antigen (HBcAg/HBeAg) secreted in serum, and the level of HBV DNA was detected by qPCR. […]

[10] = LNP with EPIREG mRNA + sgRNA 1:1, 2.5 μg/ml, 2-10 days after administration

## 973 (guide TCGGAACGGCAGACGGAGAA; listed as DNA, chemistry not fully specified) [compound 973]
[1]
  Log2 FC: 1.056
[2]
  Log2 FC: 6.3619
[3]
  Log2 FC: 3.9552

## 985 (guide TCTGCCGTTCCGACCGACCA; listed as DNA, chemistry not fully specified) [compound 985]
[1]
  Log2 FC: 1.8695
[2]
  Log2 FC: 6.0276
[3]
  Log2 FC: 3.1824

## COCCCOc1cc2c(cc1OC)-c1cc(=O)c(C(=O)O)cn1[C@H](C(C)C)C2 [RG7834, reference compound]
[4]
  level of viral antigen protein (HBsAg, HBeAg/HBcAg) after end of treatment: clear rebound (increasing) trend

## AGGAGTTCCGCAGTATGGAT [BSG35]
[5]
  inhibition level, comparison among the 20 sgRNAs: highest inhibition level
[6]; type B HBV HBx reporter cell line
  inhibitory effects on HBx expression: nearly the best inhibitory effects
[6]
  editing effects in the HBx reporter cell line: extremely high editing effects
[7]
  inhibitory effects on HBx expression: nearly the best inhibitory effects
[4]
  inhibitory effect compared with Myrcludex B and RG7834: close to that of the two reference inhibitors
  level of viral antigen protein (HBsAg, HBeAg/HBcAg) after end of treatment: remained stable at a low level
[4]; 2.5 μg/ml
  inhibitory effect on HBsAg and HBeAg/HBcAg, comparison among sgRNAs: best effect
[4]; 2.5 μg/ml, 2-10 days after administration
  expression levels of HBsAg and HBeAg/HBcAg in the supernatant (change): different degrees of decrease
[4]; [10]
  reduction of expression level of HBeAg/HBcAg in the supernatant: about 80%
  reduction of expression level of HBsAg in the supernatant: about 80%
[4]; after single administration
  time at which expression levels of HBsAg and HBeAg/HBcAg became stable: basically stable on the day 4 after administration
[8]
  inhibitory effects on HBx expression: nearly the best inhibitory effects

## BSG30: sgRNA tested in the HBx reporter cell line of type B HBV (guide CCTGCTGCGAGCAAAACAAG; listed as DNA, chemistry not given here)
[6]
  editing effects in the HBx reporter cell line: extremely high editing effects

## BSG43: sgRNA tested in the HBx reporter cell line of type B HBV (guide TCCTCTACCGATCCATACTG; listed as DNA, chemistry not given here)
[6]
  editing effects in the HBx reporter cell line: extremely high editing effects

## BSG50: sgRNA tested in the HBx reporter cell line of type B HBV (guide GATCGGTAGAGGAGACACAA; listed as DNA, chemistry not given here)
[6]
  editing effects in the HBx reporter cell line: extremely high editing effects

## Bepirovirsen [ASO]
[9]
  persistence of effect on HBV markers: gradually returned to their original levels

— US20260097133A1, “EPIGENETIC EDITING TOOL FOR TARGETING HEPATITIS B VIRUS GENE” (priority 2023, published 2026)
